Measured values published in patent publication US20240218022A1, “ANTI-VISTA MACROCYCLIC PEPTIDES AND COMPOSITIONS” (BRISTOL-MYERS SQUIBB COMPANY, priority 2022, published 2024).
Read-outs that look alike come from different tables or passages of the source. Starred links: 1 amine or outer side, 2 acyl side, 3 side chain; linkers in the order of their positions; H or OH if unused. Positions of bridges follow the written chain, without caps; N, C: chain ends. Non-standard residues stand in square brackets, D forms with d. Residues, ends and D or L forms follow the SMILES beside them. ξ: configuration not given here. Phe(3-Me) = Cc1cccc(C[C@H](N)C(=O)O)c1; γGlu = O=C(O)[C@H](CCC(=O)[*:2])N[*:1]; 2Nal = N[C@@H](Cc1ccc2ccccc2c1)C(=O)O; βAsp = O=C(O)[C@H](CC(=O)[*:2])N[*:1]; NMeIle(3ξ) = CCC(C)[C@H](NC)C(=O)O; Aad = N[C@@H](CCCC(=O)O)C(=O)O; Cha = N[C@@H](CC1CCCCC1)C(=O)O; Ahp(2) = CCCCC[C@H](N)C(=O)O; NMeNle = CCCC[C@H](NC)C(=O)O; Tle = CC(C)(C)[C@H](N)C(=O)O; NMeV = CN[C@H](C(=O)O)C(C)C; NHexGly = CCCCCCNCC(=O)O; Nle = CCCC[C@H](N)C(=O)O; Orn = NCCC[C@H](N)C(=O)O; Aun = NCCCCCCCCCCC(=O)O; AEEA = NCCOCCOCC(=O)O

Biological target: T1, mouse VISTA (mVISTA) (Mus musculus, UniProt Q9D659)
T1 construct: expressed in transfected cells; host or cells: Human embryonic kidney 293T cells
T1 sequence (Q9D659 33-308): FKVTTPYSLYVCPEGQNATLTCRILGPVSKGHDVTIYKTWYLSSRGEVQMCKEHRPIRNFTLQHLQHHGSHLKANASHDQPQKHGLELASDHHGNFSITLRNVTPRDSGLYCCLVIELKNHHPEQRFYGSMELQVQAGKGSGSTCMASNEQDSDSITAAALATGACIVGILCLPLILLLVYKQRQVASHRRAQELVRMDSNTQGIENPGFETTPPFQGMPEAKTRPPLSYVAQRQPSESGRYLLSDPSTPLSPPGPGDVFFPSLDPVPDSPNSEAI
Assay: Cell-Based Binding High-Content Assay For mVISTA (HC CBA mVISTA)
In short: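 This high-content binding assay uses HEK293T cells expressing murine VISTA, measuring displacement of 2 nM biotinylated peptide by fluorescent streptavidin imaging. IC50 values come from four-parameter logistic fitting.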

[1] = cell-based binding high-content assay, mVISTA, the 15th table, read-out: HC CBA mVISTA IC50
[2] = 293T cells expressing mouse VISTA, competition with biotinylated peptide (2 nM), read-out: HC CBA mVISTA IC50

SMILES | IC50 (read-out: HC CBA mVISTA IC50) | also measured
CCCCCCN1CC(=O)N[C@@H](Cc2ccc(O)cc2)C(=O)N[C@@H](CC(C)C)C(=O)N[C@@H](CC(N)=O)C(=O)N[C@@H](CCCNC(=N)N)C(=O)N(C)[C@@H](C(C)C)C(=O)N[C@@H](CCCCC)C(=O)N2CCC[C@H]2C(=O)N[C@@H](C(C)(C)C)C(=O)N[C@@H](CO)C(=O)N[C@H](C(=O)NCCOCCOCC(=O)N[C@@H](CCC(=O)NCCOCCOCC(=O)NCCCCCCCCCCC(=O)O)C(=O)O)CSCC(=O)N[C@@H](Cc2ccccc2)C(=O)N[C@@H](Cc2ccc(O)cc2)C(=O)N[C@@H](CC(=O)O)C1=O [compound 2271] ({CH2CO}-FYD[NHexGly]YLNR[NMeV][Ahp(2)]P[Tle]SC[AEEA][γGlu][AEEA][Aun]-OH; thioether N-14) | 25.4 nM | –
CCCCCCN1CC(=O)N[C@@H](Cc2ccc(O)cc2)C(=O)N[C@@H](CC2CCCCC2)C(=O)N[C@@H](CC(N)=O)C(=O)N[C@@H](CCCN)C(=O)N(C)[C@@H](CCCC)C(=O)N[C@@H](CCCCC)C(=O)N2CCC[C@H]2C(=O)N[C@@H](C(C)(C)C)C(=O)N[C@@H](CO)C(=O)N[C@H](C(=O)N[C@@H](CC(=O)NCCOCCOCC(=O)N[C@@H](CC(=O)O)C(=O)NCCOCCOCC(=O)NCCCCCCCCCCC(=O)O)C(=O)O)CSCC(=O)N[C@@H](Cc2ccccc2)C(=O)N[C@@H](Cc2ccc(O)cc2)C(=O)N[C@@H](CC(=O)O)C1=O [compound 2055] ({CH2CO}-FYD[NHexGly]Y[Cha]N[Orn][NMeNle][Ahp(2)]P[Tle]SC[βAsp][AEEA]D[AEEA][Aun]-OH; thioether N-14) | – | IC50 (cell-based binding high-content assay, mVISTA, read-out: HC CBA miPr ISTA IC50): 32.7 nM
CCCCCCN1CC(=O)N[C@@H](Cc2ccc(O)cc2)C(=O)N[C@@H](CCCC)C(=O)N[C@@H](CC(=O)O)C(=O)N[C@@H](CCCN)C(=O)N(C)[C@@H](CCCC)C(=O)N[C@@H](CCCCC)C(=O)N2CCC[C@H]2C(=O)N[C@@H](C(C)C)C(=O)N[C@@H](CC(=O)O)C(=O)N[C@H](C(=O)N[C@@H](CC(=O)O)C(N)=O)CSCC(=O)N[C@@H](Cc2ccc3ccccc3c2)C(=O)N[C@@H](Cc2c[nH]c3ccccc23)C(=O)N[C@@H](CC(=O)O)C1=O [compound 1244] ({CH2CO}-[2Nal]WD[NHexGly]Y[Nle]D[Orn][NMeNle][Ahp(2)]PVDCD-NH2; thioether N-14) | – | IC50 [1]: 13.5 nM
CCCCCCN1CC(=O)N[C@@H](Cc2ccc(O)cc2)C(=O)N[C@@H](CCCCC)C(=O)NCC(=O)N[C@@H](CCCNC(=N)N)C(=O)N[C@@H](CC(C)C)C(=O)N[C@@H](CCCCC)C(=O)N2CCC[C@H]2C(=O)N[C@@H](C(C)C)C(=O)N[C@@H](CO)C(=O)N[C@H](C(=O)NCC(=O)O)CSCC(=O)N[C@@H](Cc2ccccc2)C(=O)N[C@@H](Cc2ccc(O)cc2)C(=O)N[C@@H](CC(=O)O)C1=O [Example 1044] ({CH2CO}-FYD[NHexGly]Y[Ahp(2)]GRL[Ahp(2)]PVSCG-OH; thioether N-14) | – | IC50 [2]: 21.4 nM
CCCCCCN1CC(=O)N[C@@H](Cc2ccc(O)cc2)C(=O)N[C@@H](CCCC)C(=O)N[C@@H](CC(N)=O)C(=O)N[C@@H](CCCNC(=N)N)C(=O)N(C)[C@@H](C(C)CC)C(=O)N[C@@H](CCCCC)C(=O)N2CCC[C@H]2C(=O)N[C@@H](C(C)(C)C)C(=O)N[C@@H](CO)C(=O)N[C@H](C(=O)NCCOCCOCC(=O)N[C@@H](CCC(=O)NCCOCCOCC(=O)NCCCCCCCCCCC(=O)O)C(=O)O)CSCC(=O)N[C@@H](Cc2ccccc2)C(=O)N[C@@H](Cc2c[nH]c3ccccc23)C(=O)N[C@@H](CC(=O)O)C1=O (some centres unmarked) [compound 2246] ({CH2CO}-FWD[NHexGly]Y[Nle]NR[NMeIle(3ξ)][Ahp(2)]P[Tle]SC[AEEA][γGlu][AEEA][Aun]-OH; thioether N-14) | 47 nM | –
CCCCCCN1CC(=O)N[C@@H](Cc2ccc(O)cc2)C(=O)N[C@@H](C(C)C)C(=O)NCC(=O)N[C@@H](CCCNC(=N)N)C(=O)N[C@@H](CC(C)C)C(=O)N[C@@H](CCCCC)C(=O)N2CCC[C@H]2C(=O)N[C@@H](C(C)C)C(=O)N[C@@H](CC(=O)O)C(=O)N[C@H](C(=O)NCC(N)=O)CSCC(=O)N[C@@H](Cc2ccc3ccccc3c2)C(=O)N[C@@H](Cc2c[nH]c3ccccc23)C(=O)N[C@@H](CC(=O)O)C1=O [compound 1228] ({CH2CO}-[2Nal]WD[NHexGly]YVGRL[Ahp(2)]PVDCG-NH2; thioether N-14) | – | IC50 [1]: 27.1 nM
CCCCCCN1CC(=O)N[C@@H](Cc2ccc(O)cc2)C(=O)N[C@@H](CC(C)C)C(=O)NCC(=O)N[C@@H](CCCNC(=N)N)C(=O)N[C@@H](Cc2ccc(O)cc2)C(=O)N[C@@H](CCCCC)C(=O)N2CCC[C@H]2C(=O)N[C@@H](C(C)C)C(=O)N[C@@H](CO)C(=O)N[C@H](C(=O)NCC(N)=O)CSCC(=O)N[C@@H](Cc2ccccc2)C(=O)N[C@@H](Cc2ccc(O)cc2)C(=O)N[C@@H](CC(=O)O)C1=O [Example 1094] ({CH2CO}-FYD[NHexGly]YLGRY[Ahp(2)]PVSCG-NH2; thioether N-14) | – | IC50 [2]: 34.9 nM
CCCCCCN1CC(=O)N[C@@H](Cc2ccc(O)cc2)C(=O)N[C@@H](CCCC)C(=O)N[C@@H](CC(=O)O)C(=O)N[C@@H](CCCNC(=N)N)C(=O)N[C@@H](CC(C)C)C(=O)N[C@@H](CCCCC)C(=O)N2CCC[C@H]2C(=O)N[C@@H](C(C)C)C(=O)N[C@@H](CC(=O)O)C(=O)N[C@H](C(=O)N[C@@H](CO)C(N)=O)CSCC(=O)N[C@@H](Cc2cccc(C)c2)C(=O)N[C@@H](Cc2c[nH]c3ccccc23)C(=O)N[C@@H](CC(=O)O)C1=O [compound 1428] ({CH2CO}-[Phe(3-Me)]WD[NHexGly]Y[Nle]DRL[Ahp(2)]PVDCS-NH2; thioether N-14) | – | IC50 (the 19th table, scaffold drawing 22, read-out: HC CBA mVISTA IC50): 13.6 nM
CCCCCCN1CC(=O)N[C@@H](Cc2ccc(O)cc2)C(=O)N[C@@H](CC(C)C)C(=O)N[C@@H](CC(N)=O)C(=O)N[C@@H](CCCNC(=N)N)C(=O)N(C)[C@@H](CCCC)C(=O)N[C@@H](CCCCC)C(=O)N2CCC[C@H]2C(=O)N[C@@H](C(C)(C)C)C(=O)N[C@@H](CO)C(=O)N[C@H](C(=O)N[C@@H](CCCCN)C(=O)NCCOCCOCC(=O)N[C@@H](CC(=O)O)C(=O)NCCOCCOCC(=O)NCCCCCCCCCCC(=O)O)CSCC(=O)N[C@@H](Cc2ccccc2)C(=O)N[C@@H](Cc2ccc(O)cc2)C(=O)N[C@@H](CC(=O)O)C1=O [compound 2080] ({CH2CO}-FYD[NHexGly]YLNR[NMeNle][Ahp(2)]P[Tle]SCK[AEEA]D[AEEA][Aun]-OH; thioether N-14) | – | IC50 (cell-based binding high-content assay, mVISTA, read-out: HC CBA miPrISTA IC50): 28.5 nM
CCCCCCN1CC(=O)N[C@@H](Cc2ccc(O)cc2)C(=O)N[C@@H](CCCCC)C(=O)NCC(=O)N[C@@H](CCCNC(=N)N)C(=O)N[C@@H](CC(C)C)C(=O)N[C@@H](CCCCC)C(=O)N2CCC[C@H]2C(=O)N[C@@H](C(C)C)C(=O)N[C@@H](CO)C(=O)N[C@H](C(=O)NCCOCCOCC(=O)N[C@@H](CCC(=O)NCCOCCOCC(=O)NCCCCCCCCCCC(=O)O)C(=O)O)CSCC(=O)N[C@@H](Cc2ccccc2)C(=O)N[C@@H](Cc2ccc(O)cc2)C(=O)N[C@@H](CC(=O)O)C1=O [compound 2215] ({CH2CO}-FYD[NHexGly]Y[Ahp(2)]GRL[Ahp(2)]PVSC[AEEA][γGlu][AEEA][Aun]-OH; thioether N-14) | 28.3 nM | –

The next lines start with results.

IC50 (read-out: HC CBA mVISTA IC50) | SMILES | also measured
43.9 nM | CCCCCCN1CC(=O)N[C@@H](Cc2ccc(O)cc2)C(=O)N[C@@H](CCCC)C(=O)N[C@@H](CC(N)=O)C(=O)N[C@@H](CCCNC(=N)N)C(=O)N(C)[C@@H](CCCC)C(=O)N[C@@H](CCCCC)C(=O)N2CCC[C@H]2C(=O)N[C@@H](C(C)(C)C)C(=O)N[C@@H](CC(=O)O)C(=O)N[C@H](C(=O)N[C@@H](CC(N)=O)C(=O)O)CSCC(=O)N[C@@H](Cc2ccccc2)C(=O)N[C@@H](Cc2c[nH]c3ccccc23)C(=O)N[C@@H](CC(=O)O)C1=O [Example 1398] ({CH2CO}-FWD[NHexGly]Y[Nle]NR[NMeNle][Ahp(2)]P[Tle]DCN-OH; thioether N-14) | –
38.4 nM | CCCCCCN1CC(=O)N[C@@H](Cc2ccc(O)cc2)C(=O)N[C@@H](CCCC(=O)O)C(=O)N[C@@H](CC(N)=O)C(=O)N[C@@H](CCCNC(=N)N)C(=O)N(C)[C@@H](CCCC)C(=O)N[C@@H](CCCCC)C(=O)N2CCC[C@H]2C(=O)N[C@@H](C(C)(C)C)C(=O)N[C@@H](CC(=O)O)C(=O)N[C@H](C(N)=O)CSCC(=O)N[C@@H](Cc2ccccc2)C(=O)N[C@@H](Cc2c[nH]c3ccccc23)C(=O)N[C@@H](CC(=O)O)C1=O [compound 1169] ({CH2CO}-FWD[NHexGly]Y[Aad]NR[NMeNle][Ahp(2)]P[Tle]DC-NH2; thioether N-14) | –
36.6 nM | CCCCCCN1CC(=O)N[C@@H](Cc2ccc(O)cc2)C(=O)N[C@@H](CCCC)C(=O)N[C@@H](CC(N)=O)C(=O)N[C@@H](CCCNC(=N)N)C(=O)N(C)[C@@H](CCCC)C(=O)N[C@@H](CCCCC)C(=O)N2CCC[C@H]2C(=O)N[C@@H](C(C)(C)C)C(=O)N[C@@H](CC(=O)O)C(=O)N[C@H](C(=O)N[C@@H](CC(=O)O)C(N)=O)CSCC(=O)N[C@@H](Cc2ccccc2)C(=O)N[C@@H](Cc2c[nH]c3ccccc23)C(=O)N[C@@H](CC(=O)O)C1=O [Example 1371] ({CH2CO}-FWD[NHexGly]Y[Nle]NR[NMeNle][Ahp(2)]P[Tle]DCD-NH2; thioether N-14) | –
24.9 nM | CCCCCCN1CC(=O)N[C@@H](Cc2ccc(O)cc2)C(=O)N[C@@H](CC(C)C)C(=O)NCC(=O)N[C@@H](CCCNC(=N)N)C(=O)N[C@@H](Cc2ccc(O)cc2)C(=O)N[C@@H](CCCCC)C(=O)N2CCC[C@H]2C(=O)N[C@@H](C(C)C)C(=O)N[C@@H](CC(=O)O)C(=O)N[C@H](C(=O)NCC(=O)O)CSCC(=O)N[C@@H](Cc2ccccc2)C(=O)N[C@@H](Cc2c[nH]c3ccccc23)C(=O)N[C@@H](CC(=O)O)C1=O [Example 1417] ({CH2CO}-FWD[NHexGly]YLGRY[Ahp(2)]PVDCG-OH; thioether N-14) | –
